The target in series [1] is T1, PRAK (Homo sapiens, UniProt Q8IW41).
T1 construct: purchased Millipore (KinaseProfiler service)
Briefly: PRAK radiometric kinase assay. Type of series: biochemical. The conditions noted are these: peptide 100 μM. The text has this: A commercial radiometric assay service was used to test the specificity and potency of MMI-0100 ([…]; SEQ ID NO: 1) by measuring its half maximal inhibitory concentrations (IC50). This quantitative assay measures how much MK2 inhibitor (MMI-0100; […] (SEQ ID NO: 1)) is needed to inhibit 50% of a given biological process or component of a process (i.e., an enzyme, cell, or cell receptor). Specifically, in these assays, a positively charged substrate is phosphorylated with a radiolabeled phosphate group from an ATP if the kinase is not inhibited by an inhibitor peptide. The positively charged substrate then is attracted to a negatively charged filter membrane, quantified with a scintillation counter, and compared to a 100% activity control. ATP concentrations within 15 μM of the apparent Km for ATP were chosen since an ATP concentration near the Km may allow for the kinases to have the same relative amount of phosphorylation activity. The individual conditions for each radiometric assay are as follows. […]
IC50 values for inhibitor peptides were determined using Millipore's IC50 Profiler Express service. […]

Series [2] relates to human endothelial cell (EC). The series can be described thus: Phase contrast morphology, endothelial cells. The conditions noted are these: 24 hours treatment, vs control cells. Format: cell-based. The method, then: In order to determine the effect of pharmacological doses of MMI-0100 ([…]; SEQ ID NO: 1) on human endothelial cell (EC) and smooth muscle cell (SMC) proliferation, human EC and SMC cultures were treated with three concentrations (0.25 mM, 0.5 mM, and 1 mM) of MMI-0100 ([…] (SEQ ID NO: 1)) following pre-treatment with TNF-α.

Series [3] has as its system human saphenous vein (HSV). The series can be described thus: Muscle bath: sodium nitroprusside-induced relaxation of human saphenous vein. The conditions noted are these: for relaxation: 100 μM pretreatment, phenylephrine 10^-6 M, percent relaxation per method. Type of series: cell-based. The method, then:
De-identified, discarded segments of human saphenous vein (HSV) were collected from consented patients undergoing coronary artery or peripheral vascular bypass surgeries. HSV segments were stored in a saline solution until the end of the surgical procedure, at which time they were placed in cold transplant harvest buffer (100 mM potassium lactobionate, 25 mM KH2PO4, 5 mM MgSO4, 30 mM Raffinose, 5 mM Adenosine, 3 mM Glutathione, 1 mM Allopurinol, 50 g/L Hydroxyethyl starch, pH 7.4). The vessels were used within 24 hours of harvest. Using sterile technique, HSV segments were transferred to a 60-mm Petri dish under a sterile hood. The edges (0.5 mm) of each segment were removed with a blade and excess adventitial tissue and fat removed with minimal manipulation. HSV segments were cut into consecutive rings of approximately 1.0 mm in width to be utilized for organ culture or muscle bath experiments. Two rings from each segment were immediately fixed in 10% formalin at 37° C. for 30 min to obtain pre-culture intimal thickening measurements.
In preparation for testing vein segment functional viability, HSV rings were weighed and their lengths recorded. To focus on smooth muscle responses, the endothelium was mechanically denuded by rolling the luminal surface of each ring at the tip of a fine vascular forceps before suspension in a muscle bath containing a bicarbonate buffer (120 mM NaCl, 4.7 mM KCl, 1.0 mM MgSO4, 1.0 mM NaH2PO4, 10 mM glucose, 1.5 mM CaCl2, and 25 mM […], pH 7.4) equilibrated with 95% O2 and 5% CO2 at 37° C. The rings were stretched and the length progressively adjusted until maximal tension was obtained. […] Rings were maintained at a resting tension of 1 g, which produces maximal responses to contractile agonists as previously determined, and equilibrated for 2 hours in buffer. […]
HSV rings were first contracted with 110 mM KCl (with equimolar replacement of NaCl in bicarbonate buffer) and the generated force was measured. […] Rings were relaxed with a cumulative log dose of sodium nitroprusside (SNP), a nitric oxide donor, and the force generated was recorded. […] Rings were then incubated with either buffer alone or buffer plus 100 μM of MMI-0100 ([…] (SEQ ID NO: 1)) for 2 hours, followed by treatment with the same doses of PE and SNP, and the forces generated again recorded. Measured force was normalized for ring weight and length and percent relaxation was calculated; force generated with 10^−6 M of PE was set as 0% relaxation.
The enhancing effect of MMI-0100 ([…]; SEQ ID NO: 1) on smooth muscle relaxation was examined by pre-treating harvested human saphenous vein (HSV) with MMI-0100 ([…]; SEQ ID NO: 1) before SNP treatment. […] Percentage of relaxation at 0, 0.01, 0.1, and 1.0 μM of SNP was measured. […]

T1 sequence (Q8IW41 whole entry, species assumed): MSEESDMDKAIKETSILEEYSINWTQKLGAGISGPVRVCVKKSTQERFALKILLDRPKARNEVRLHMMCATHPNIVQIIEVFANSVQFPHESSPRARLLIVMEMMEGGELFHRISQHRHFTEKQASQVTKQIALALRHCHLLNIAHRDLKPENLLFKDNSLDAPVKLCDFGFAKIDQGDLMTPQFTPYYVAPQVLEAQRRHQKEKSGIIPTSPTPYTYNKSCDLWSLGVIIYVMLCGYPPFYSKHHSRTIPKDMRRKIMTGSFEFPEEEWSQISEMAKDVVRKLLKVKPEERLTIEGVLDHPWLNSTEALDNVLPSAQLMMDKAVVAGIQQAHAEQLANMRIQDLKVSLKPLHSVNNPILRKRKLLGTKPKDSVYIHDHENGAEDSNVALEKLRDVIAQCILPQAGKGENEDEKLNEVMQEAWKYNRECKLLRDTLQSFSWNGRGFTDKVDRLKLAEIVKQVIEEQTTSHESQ

For the sequence YARAAARQARAKALARQLGVAA [MMI-0100], in series [1], the “Percent Activity, PRAK” value is listed as 100%. Further, the “morphological changes of EC” value in series [2] is “no obvious morphological changes”. Moreover, in series [3] (30 μM, 2 hrs pretreatment, norepinephrine contraction, SNP 0-1 μM), the “increase in relaxation compared to control-pretreated HSV” value is given as “about 40%”. Besides, the relaxation in series [3] (SNP 10^-7 M, untreated control 72.768±6.99) is 92.54±3.09; in series [3] (SNP 10^-8 M, untreated control 10.825±5.62), 25.622±6.38.

Source of the values: patent US20110288036A1, “Methods for Treating or Preventing Vascular Graft Failure” (priority 2010, published 2011).
